Experimental data taken from US7670631B2, “Method for the prevention of malaria infection of humans by hepatocyte growth factor antagonists” (ALFAMA—Investigação e Desenvolvimento de Produtos …, priority 2003, dated 2010).

Assays:
ISIF/HGF secretion = ISIF/HGF secretion by HepG2 cells after wounding (infection susceptibility assay); assay type: cell-based; conditions: HepG2 cells treated, washed, incubated with P. berghei sporozoites to generate conditioned medium
Description: HepG2 cells were treated with Brefeldin-A (BFA), an inhibitor of protein transport to the Golgi vesicles that blocks constitutive secretion in eukaryotic cells. BFA treated cells, and untreated control cells, were then washed and incubated with P. berghei sporozoites to generate conditioned medium. […] The effect of BFA was dose-dependent. Supernatants of mechanically wounded HepG2 cells were collected after various time periods of incubation. ISIF/HGF levels, as determined by the infection susceptibility assay (FIG. 2c) and western blot analysis, (FIG. 2d) increased with time. The ISIF activity was abolished by the addition of neutralizing anti-HGF antibodies (FIG. 2c).

P. berghei sporozoites [1] = assay: Genistein effect on hepatic infection with Plasmodium berghei sporozoites in vitro (EEF count in HepG2 cells); assay type: cell-based; conditions: Genistein at 25 μM, 24 h with P. berghei sporozoites
Description: HepG2 cells were maintained in DMEM 10% FCS, 1 mM glutamine. P. berghei sporozoites were obtained from dissection of infected Anopheles stephensi mosquito salivary glands. P. berghei sporozoites ([…]) were added to monolayers of 2×10^5 HepG2 cells (in the presence or not of Genistein) for 24 h before fixation and staining with anti-EEF mAb (2E6), followed by anti-mouse IgG-FITC antibodies. Infection was quantified by counting the number of EEFs per coverslip.

HGF receptor = assay: ISIF activity of medium conditioned by primary hepatocytes; assay type: cell-based
Description: (§1) Supernatant were generated from cultures containing the mouse hepatoma cells Hepa1-6 and P. yoelii sporozoites (mH/Py conditioned media). To detect ISIF activity, fresh hepatoma cells were incubated with mH/Py conditioned media for different periods of time. Cells were then washed and incubated with P. yoelii sporozoites. Infection was examined 24 h later by staining the exo-erythrocytic forms of the parasite (EEFs). As controls, we used Hepa1-6 cells pre-incubated for identical periods of time with fresh medium before addition of P. yoelii sporozoites. Pre-treatment of hepatocytes with mH/Py conditioned medium increases the level of infection (FIG. 1a). […] Since sporozoites are obtained by dissection of infected mosquito salivary glands, we also tested conditioned media that were obtained from cultures containing hepatoma cells and material of salivary glands from uninfected mosquitoes. Medium conditioned in this way was ineffective (FIG. 1b).
Primary hepatocytes were obtained by liver perfusion. […] Cells that have been traversed by sporozoites can be detected using a cell-impermeant fluorescent tracer macromolecule that only penetrates into wounded cells. P. yoelii sporozoites were incubated with Hepa1-6 cells in the presence of fluorescent-labelled dextran before staining for HGF. […]

MET = target: T1, MET (Homo sapiens, UniProt P08581); conditions: cited from earlier work
T1 construct: host or cells: MLP-29 cells, GTL-16 gastric carcinoma cells and NIH3T3 fibroblasts are named in the same paragraph
T1 sequence (P08581 25-1390): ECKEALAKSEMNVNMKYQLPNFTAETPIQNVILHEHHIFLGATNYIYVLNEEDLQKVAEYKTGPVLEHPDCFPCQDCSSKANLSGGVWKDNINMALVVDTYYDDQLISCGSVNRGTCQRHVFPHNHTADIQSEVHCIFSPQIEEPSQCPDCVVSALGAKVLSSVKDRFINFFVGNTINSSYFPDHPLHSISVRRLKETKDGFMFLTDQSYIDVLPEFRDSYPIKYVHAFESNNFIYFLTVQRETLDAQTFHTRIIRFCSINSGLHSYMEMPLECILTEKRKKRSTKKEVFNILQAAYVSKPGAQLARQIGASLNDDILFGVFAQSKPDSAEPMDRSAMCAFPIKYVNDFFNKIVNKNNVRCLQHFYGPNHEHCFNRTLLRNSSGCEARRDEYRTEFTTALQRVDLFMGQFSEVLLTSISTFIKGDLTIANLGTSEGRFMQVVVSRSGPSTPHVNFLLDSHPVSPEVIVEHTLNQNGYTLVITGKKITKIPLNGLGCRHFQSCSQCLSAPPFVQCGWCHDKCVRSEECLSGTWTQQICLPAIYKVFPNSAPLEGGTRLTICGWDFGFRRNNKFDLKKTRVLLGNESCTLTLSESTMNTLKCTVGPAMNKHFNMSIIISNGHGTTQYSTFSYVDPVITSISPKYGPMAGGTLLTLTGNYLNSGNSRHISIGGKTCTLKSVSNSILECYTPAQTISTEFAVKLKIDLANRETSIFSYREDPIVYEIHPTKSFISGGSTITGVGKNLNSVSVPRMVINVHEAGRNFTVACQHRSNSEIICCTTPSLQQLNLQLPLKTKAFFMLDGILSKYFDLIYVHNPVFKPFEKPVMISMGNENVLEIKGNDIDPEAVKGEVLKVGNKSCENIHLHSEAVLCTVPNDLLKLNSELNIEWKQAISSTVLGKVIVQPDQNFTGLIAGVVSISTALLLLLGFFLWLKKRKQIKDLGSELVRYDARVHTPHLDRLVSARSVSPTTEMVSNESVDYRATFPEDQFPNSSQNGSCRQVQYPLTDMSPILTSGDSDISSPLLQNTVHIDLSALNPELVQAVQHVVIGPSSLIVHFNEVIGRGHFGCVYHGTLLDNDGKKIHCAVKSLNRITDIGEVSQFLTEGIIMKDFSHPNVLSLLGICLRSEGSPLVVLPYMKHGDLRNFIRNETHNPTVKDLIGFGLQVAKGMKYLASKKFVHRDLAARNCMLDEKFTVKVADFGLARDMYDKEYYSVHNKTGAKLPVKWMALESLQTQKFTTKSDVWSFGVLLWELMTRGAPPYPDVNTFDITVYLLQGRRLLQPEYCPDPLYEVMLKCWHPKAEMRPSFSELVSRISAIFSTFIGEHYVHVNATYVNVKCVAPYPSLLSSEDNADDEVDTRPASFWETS

[2] = in vivo; cited from earlier work
Plasmodium berghei = conditions: cited from earlier work
P. berghei sporozoites [3] = assay: Infection susceptibility (ISIF) assay: HepG2 cells pre-incubated with growth factors or conditioned medium plus antibodies before P. berghei sporozoites; assay type: cell-based, Plasmodium berghei; conditions: HepG2 cells pre-incubated before addition of P. berghei sporozoites
Description: as §1
To test whether ISIF activity was mediated by known growth factor, two well-characterized growth factors known to be released after injury were tested: basic fibroblast growth factor (bFGF) and hepatocyte growth factor (HGF). HepG2 cells were pre-incubated with human HGF or bFGF before addition of P. berghei sporozoites. As positive and negative controls, cells were incubated with hH/Pb conditioned medium or fresh medium, respectively. […]

## C[C@H]1CCC/C=C/[C@@H]2C[C@H](O)C[C@H]2[C@H](O)/C=C/C(=O)O1 [BFA, Brefeldin-A]
ISIF/HGF secretion
  ISIF/HGF secretion: inhibits ISIF/HGF secretion

## O=c1c(-c2ccc(O)cc2)coc2cc(O)cc(O)c12 [Genistein, genistein]
P. berghei sporozoites [1]
  reduction in infection (number of EEFs per coverslip): approximately 75%

## COC(=O)[C@@]1(O)C[C@H]2O[C@]1(C)n1c3ccccc3c3c4c(c5c6ccccc6n2c5c31)C(=O)NC4 [K252a]
HGF receptor
  ISIF activity: abolished ISIF activity
MET
  concentration inhibiting Met mediated signals: nanomolar concentrations

## OC(c1cc(C(F)(F)F)nc2c(C(F)(F)F)cccc12)C1CCCCN1 (stereo not shown) [Mefloquine, mefloquine]
[2]
  elimination half life: two to three

## COc1cc(NC(C)CCCN)c2ncccc2c1 (stereo not shown) [Primaquine, primaquine]
[2]
  half life: very short

## C[C@@H]1C[C@H]2O[C@@H]2/C=C\C=C\C(=O)Cc2c(Cl)c(O)cc(O)c2C(=O)O1 [radicicol]
Plasmodium berghei
  activity against Plasmodium berghei in mice: moderately active

## COc1cc(C)c2c(Oc3cccc(C(F)(F)F)c3)c(OC)cc(NC(C)CCCN)c2n1 (stereo not shown) [tafenoquine]
[2]
  terminal half life: about 14 days

## HGF: hepatocyte growth factor, ligand of the receptor protein tyrosine kinase Met
P. berghei sporozoites [3]
  effect on infection of pre-incubation of HepG2 cells with growth factor: increased infection to a greater extent than the hH/Pb conditioned medium

## bFGF: basic fibroblast growth factor
P. berghei sporozoites [3]
  effect on infection of pre-incubation of HepG2 cells with growth factor: ineffective
